{
  "source": "patent US20070117842A1",
  "about": "“Polymorph of 4-[3-chloro-4-(cyclopropylaminocarbonyl)aminophenoxy]-7-methoxy-6- quinolinecarboxamide and a process for the preparation of the same” (priority 2003, published 2007)",
  "assay_type_in_all_cases": "physicochemical",
  "key": {"[1]": {"test": "Solid stability test (1 month storage; appearance, water content, HPLC purity and residual ratio, powder X-ray diffraction)", "settings": "for impurity / remaining percent: HPLC; for water content: Karl Fischer method", "protocol": "(Solid Stability Test) The solid stabilities of the crystal obtained in Examples 1d and 2d were evaluated. […] The water content measurement and the powder X-ray diffraction measurement were carried out by the same method as described in the hygroscopicity test by the dessiccator method. Further, the purity test and the residual ratio (percent) measurement by HPLC were carried out by the same method as described above, except for the condition that the column temperature was 35° C. In this connection, the residual ratio (percent) (measurement by HPLC) was defined as stated bellow by using the crystal stored under the condition C as the standard and its solution as the standard solution. Remaining percent (%)=[(Peak area of the sample solution)×(Weighed amount of the standard: in terms of a dehydrate (mg))]×100/[(Peak area of the standard solution)×(Weighed amount of the sample: in terms of a dehydrate (mg))] [table]"}, "[2]": {"test": "Hygroscopicity test by a desiccator method", "settings": "for water content: Karl Fischer method", "protocol": "(Hygroscopicity Test by a Desiccator Method) The hygroscopicities of the crystals obtained in Examples 1d and 2d were evaluated by a desiccator method. […] Weighing bottles (in opened caps) were used for containers, and MIR-552 (Sanyo) was used for a storage apparatus. [table] The powder X-ray diffraction analysis was carried out under the following conditions. The water content was measured (by the Karl Fischer method) by using the following apparatus and reagents."}, "[3]": {"test": "Solubility test (pH 3, Britton Robinson buffer)", "settings": "for pH of the filtrate: solubility test", "protocol": "(Solubility Test) The solubilities (pH 3) of the crystals obtained in Examples 1d and 2d were evaluated by the following method. About 3 mg of the crystals obtained in Examples 1d and 2d were weighed and each of them was put in a 10 mL screw-capped transparent test tube. 5 mL of a buffer solution (Britton Robinson buffer, pH 3.091, ionic strength I=0.3) was added to each of the test tubes to prepare the test solutions. The test tubes were wrapped with aluminum foil to shield from light, and shaken by a shaker (MS-1 Iuchi Seieido) in the following conditions. Temperature: 25-26° C. (a temperature in a laboratory) Shaking frequency: 150 times/minute Shaking time: 3 hours and 5 hours Respective sample solutions after shaking were filtered ([…], Sample LCR13-LG, Millipore Co.), and each 1 mL of the initial filtrate was discarded. Each of accurately pipetted 1 mL of the filtrates was put in a 10 mL test tube, to which accurately pipetted 1 mL of a mixed solution of water/acetonitrile (1:1 (v/v)) was added to prepare a solution for the HPLC analysis. The HPLC conditions were as follows. A standard solution for the HPLC analysis were prepared as follows. About 10 mg of the crystals obtained in Example 2d was accurately weighed, to which a mixed solution of water/acetonitrile/ammonium acetate (100:100:0.1, v/v/w) was added to give accurate 100 mL to prepare a stock standard solution. Accurately pipetted 5 mL of the stock control solution was added with a mixed solution of water/acetonitrile/ammonium acetate (100:100:0.1, v/v/w) to give accurate 25 mL to prepare the standard solution for the HPLC analysis. Regarding a blank solution, a mixed solution of water/acetonitrile/ammonium acetate (100:100:0.1, v/v/w) was used. The standard solution and respective filtrates were analyzed by HPLC to measure concentrations (mg/mL) of 4-(3-chloro-4-(cyclopropylaminocarbonyl)aminophenoxy)-7-methoxy-6-quinolinecarboxamide in respective filtrates according to the following equation. Concentration (mg/mL)=(Concentration in the standard solution, mg/mL)×[(Peak area in each filtrate)×2/(Peak area in the standard solution)] As is evident from the results, there was no significant difference in the solubility at pH 3 between the polymorphs (A) and (B)."}, "[4]": {"test": "Crystal transition between polymorphs in heated suspension", "settings": "60° C., 3 hours, listed as polymorph (A)", "protocol": "These suspensions were filtered to collect 4-(3-chloro-4-(cyclopropylaminocarbonyl)aminophenoxy)-7-methoxy-6-quinolinecarboxamide (184 to 266 mg).\nThese suspensions were filtered to collect 4-(3-chloro-4-(cyclopropylaminocarbonyl)aminophenoxy)-7-methoxy-6-quinolinecarboxamide (141 to 256 mg)."}, "[5]": {"test": "Hygroscopicity test by microbalance method", "settings": "25° C.", "protocol": "(Hygroscopicity Test by Microbalance Method)\nThe higroscopicities of the crystals obtained in Examples 1d and 2d were evaluated by microbalance method. An apparatus and conditions employed were as follows.\nApparatus: Integrated microbalance system MB 300W (VTI Co.)\nRelative humidity step: 5 to 95 by 5\nEquilibrium Criteria: 0.0050 wt % (5 minutes)\nMaximum equilibrium time: 120 minutes\nThe results of measuring the higroscopicities of the crystals obtained in Examples 1d and 2d by microbalance method are shown in FIGS. 13 and 14, respectively. As is seen from the results shown in these figures, within the range of 5-95% of relative humidity, the polymorph (A) gave a weight change of 1% and the polymorph (B) gave that of 1.5%."}, "[6]": {"settings": "condition C: −20° C., brown screw vial, closed, 1 month"}, "[7]": {"settings": "condition D: 25° C., 1000lx, shading with aluminum foil, quartz tube, closed, 1 month"}, "[8]": {"settings": "condition E: 25° C., 1000lx, quartz tube, closed, 1 month"}, "[9]": {"settings": "condition F: 40° C., 75% RH, brown screw vial, open, 1 month"}, "[10]": {"settings": "condition G: 60° C., brown screw vial, closed, 1 month"}, "[11]": {"settings": "condition A: 25° C., 75% relative humidity, stored 1 week"}, "[12]": {"settings": "condition B: 25° C., 93% relative humidity, stored 1 week"}, "[13]": {"settings": "desiccator method, 25° C., 75% or 93% relative humidity, 1 week"}},
  "data": [
    {"smiles": "COc1cc2nccc(Oc3ccc(NC(=O)NC4CC4)c(Cl)c3)c2cc1C(N)=O", "note": "[Example 1d, 4-(3-chloro-4-(cyclopropylaminocarbonyl)aminophenoxy)-7-methoxy-6-quinolinecarboxamide]", "values": [
      {"measurement": "appearance", "setting": "[1]; [6]", "value": "light brown"},
      {"measurement": "impurity", "setting": "[1]; [6]", "value": 2.66, "unit": "%"},
      {"measurement": "remaining percent", "setting": "[1]; condition C: −20° C., brown screw vial, closed, 1 month, condition C is the standard", "value": "(100) %"},
      {"measurement": "water content", "setting": "[1]; [6]", "value": 1.0, "unit": "wt %"},
      {"measurement": "appearance", "setting": "[1]; [7]", "value": "light brown"},
      {"measurement": "impurity", "setting": "[1]; [7]", "value": 2.67, "unit": "%"},
      {"measurement": "remaining percent", "setting": "[1]; condition D: 25° C., 1000lx, shading with aluminum foil, quartz tube, closed, 1 month, vs condition C standard", "value": 103.3, "unit": "%"},
      {"measurement": "water content", "setting": "[1]; [7]", "value": 0.7, "unit": "wt %"},
      {"measurement": "appearance", "setting": "[1]; [8]", "value": "light brown"},
      {"measurement": "impurity", "setting": "[1]; [8]", "value": 2.68, "unit": "%"},
      {"measurement": "remaining percent", "setting": "[1]; condition E: 25° C., 1000lx, quartz tube, closed, 1 month, vs condition C standard", "value": 104.3, "unit": "%"},
      {"measurement": "water content", "setting": "[1]; [8]", "value": 0.8, "unit": "wt %"},
      {"measurement": "appearance", "setting": "[1]; [9]", "value": "light brown"},
      {"measurement": "impurity", "setting": "[1]; [9]", "value": 2.65, "unit": "%"},
      {"measurement": "remaining percent", "setting": "[1]; condition F: 40° C., 75% RH, brown screw vial, open, 1 month, vs condition C standard", "value": 102.3, "unit": "%"},
      {"measurement": "water content", "setting": "[1]; [9]", "value": 1.2, "unit": "wt %"},
      {"measurement": "appearance", "setting": "[1]; [10]", "value": "light brown"},
      {"measurement": "impurity", "setting": "[1]; [10]", "value": 2.65, "unit": "%"},
      {"measurement": "remaining percent", "setting": "[1]; condition G: 60° C., brown screw vial, closed, 1 month, vs condition C standard", "value": 104.4, "unit": "%"},
      {"measurement": "water content", "setting": "[1]; [10]", "value": 0.5, "unit": "wt %"},
      {"measurement": "appearance", "setting": "[1]; prior to storage", "value": "light brown"},
      {"measurement": "impurity", "setting": "[1]; prior to storage", "value": 2.71, "unit": "%"},
      {"measurement": "water content", "setting": "[1]; prior to storage", "value": 1.0, "unit": "wt %"},
      {"measurement": "change on storage (solid stability)", "setting": "[1]; stored for 1 month, any storage conditions", "value": "no change was observed"},
      {"measurement": "appearance", "setting": "[2]; [11]", "value": "light brown"},
      {"measurement": "water content", "setting": "[2]; [11]", "value": 1.0, "unit": "wt %"},
      {"measurement": "appearance", "setting": "[2]; [12]", "value": "light brown"},
      {"measurement": "water content", "setting": "[2]; [12]", "value": 1.2, "unit": "wt %"},
      {"measurement": "crystal transition", "setting": "[2]; [13]", "value": "no perceivable crystal transition"},
      {"measurement": "hygroscopicity", "setting": "[2]; [13]", "value": "no perceivable hygroscopicitiy"},
      {"measurement": "appearance", "setting": "[2]; prior to storage", "value": "light brown"},
      {"measurement": "water content", "setting": "[2]; prior to storage", "value": 1.0, "unit": "wt %"},
      {"measurement": "solubility at 3 h", "setting": "[3]; Britton Robinson buffer, 25 °C, pH 3, aqueous buffer, thermodynamic from solid, pH 3 Britton Robinson buffer, 25-26° C., shaking time 3 hours, read-out: solubility (concentration in filtrate)", "value": 77, "unit": "µg/mL"},
      {"measurement": "solubility at 5 h", "setting": "[3]; Britton Robinson buffer, 25 °C, pH 3, aqueous buffer, thermodynamic from solid, pH 3 Britton Robinson buffer, 25-26° C., shaking time 5 hours, read-out: solubility (concentration in filtrate)", "value": 71, "unit": "µg/mL"},
      {"measurement": "pH of the filtrate", "setting": "[3]; shaking time 3 hours", "value": 3.123},
      {"measurement": "pH of the filtrate", "setting": "[3]; shaking time 5 hours", "value": 3.107},
      {"measurement": "crystal form after suspension", "setting": "[4]; 300 mg in DMSO (1.7 mL) and 33% (v/v) acetone-water (0.17, 0.34, 0.51 or 0.85 mL)", "value": "crystal transition to the polymorph (B) occurred in every case"},
      {"measurement": "dissolution in DMSO", "setting": "[4]; 300 mg in DMSO (1.7 mL), without 33% acetone-water", "value": "most of the polymorph (A) dissolved"},
      {"measurement": "hygroscopicity", "setting": "[5]; microbalance method, 5-95% relative humidity", "value": "no perceivable hygroscopisity"},
      {"measurement": "weight change", "setting": "[5]; within the range of 5-95% of relative humidity, listed as polymorph (A)", "value": 1, "unit": "%"}
    ]}
  ]
}
